Assay results taken from patent US5091547A, “Phenylacetic acid derivative and process for making same” (priority 1989, dated 1992).
Structures can show the parent of a compound that is named as a salt.

Legend:
[1] = system: ulcers induced by absolute ethanol; assay: Protective activity, ulcers induced by absolute ethanol; type: in vivo, rats
Source text: As explained previously, the compound of formula (I), which shall henceforth be referred to herein as LV-216, combines the advantage of anti-inflammatory and protective action.

[2] = acid as such; cited from earlier work
[3] = system: ulcerous lesions in the stomach and intestine; assay: Comparative ulcerogenic action, macroscopic lesion indices (Adami's criterion); type: in vivo, Female Wistar rats
Method: Group I: control (excipient) (n=8)
Group II: sodium salt 10 mg/kg (n=8)
Group IV: sodium salt 10 mg/kg+zinc sulphate 2.5 mg/kg (n=8) (equivalent doses).
The products were administered orally every day for four consecutive days. The animals were given no food during the 24 hours prior to the last dose.

## O=C(O)Cc1ccccc1Nc1c(Cl)cccc1Cl [2-(2,6-dichloroaniline)-phenylacetic acid]
[1]; equimolecular dose
  inhibition of ulcers induced by absolute ethanol (in words): does not inhibit the ulcers induced by absolute ethanol
[2]
  Water solubility (in words, background): practically insoluble in water

## O=C(O)Cc1ccccc1Nc1c(Cl)cccc1Cl [sodium salt, sodium salt of 2-(2,6-dichloroaniline)-phenylacetic acid]
[1]; LV-216 11 mg/kg, sodium salt at equimolecular dose, control 86.3 ± 9.4
  mm lesion (lesion index): 70.8 ± 8.2 mm
[1]; versus control, LV-216 11 mg/kg, sodium salt at equimolecular dose
  % inhibition of ulcers: 17.9%
[3]; oral, daily for four consecutive days, SS 10 mg/kg, LV-216 11 mg/kg, SS 10 mg/kg + zinc sulphate 2.5 mg/kg, n=8, control 0.4 ± 0.2
  Macroscopic lesion index (x ± e): 4.0 ± 0.4
[3]; versus control
  t vs CONTROL (lesion index): *** (p < 0.001)
  ulcerous index versus control (in words): statistically significant versus the control groups

## zinc compound of 2-(2,6-dichloroaniline)-phenylacetic acid [LV-216]
[1]; 11 mg/kg, versus control
  t test of mm lesion versus control: a (p < 0.01 versus control)
[1]; rats, doses of between 5 and 15 mg/kg
  inhibition of ulcers induced by ethanol (protective action): ≤ 80%
[3]; compared with sodium salt alone or in combination with zinc
  gastric tolerance (in words): surprisingly high degree of gastric tolerance, greater than that shown by the sodium salt administered alone or in combination with Zinc
